From patent US5523406A, “2-substituted tertiary carbinol derivatives of 1,5-iminosugars” (G. D. Searle & Co., priority 1994, dated 1996)
Converted amounts (≈) assume the structure as drawn. Like-named read-outs stand apart in the source and are kept apart here.

What was measured:
[1] = test system: HIV-1, strain HTVL-IIIB; experiment: Inhibition of HIV-1 cytopathogenic effect in Leu-3a-positive CEM cells, MTT endpoint (Method B); format: cell-based; conditions: Human immunodeficiency virus 1, IIIB, CCRF-CEM, 216 h, read-out: ID50 (the source's name)
Procedure: (§1) These tests involved plating of susceptible human host cells which are syncytium-sensitive with and without virus in microculture plates, adding various concentrations of the test compound, incubating the plates for 9 days (during which time infected, non-drug treated control cells are largely or totally destroyed by the virus), and then determining the number of remaining viable cells using a colorimetric endpoint.
Various illustrative compounds synthesized above were tested for inhibition of visna virus in vitro in a plaque reduction assay (Method A) or for inhibition of HIV-1 in a test which measured reduction of cytopathogenic effect in virus-infected synctium-sensitive Leu-3a-positive CEM cells grown in tissue culture (Method B) as follows:
(§2) Tissue culture plates were incubated at 37° C. in a humidified, 5% CO2 atmosphere and observed microscopically for toxicity and/or cytopathogenic effect (CPE). At 1 hour prior to infection, each test article was prepared from the frozen stock, and a 20 μl volume of each dilution (prepared as a 10× concentration) was added to the appropriate wells of both infected and uninfected cells.
(§3) On the 9th day post-infection, the cells in each well were resuspended and a 100 μl sample of each cell suspension was removed for use in an MTT assay. A 20 μl volume of a 5 mg/ml solution of 3-(4,5-dimethylthiazol-2-yl)-2,5-diphenyltetrazolium bromide (MTT) was added to each 100 μl cell suspension, and the cells were incubated at 37° C. in 5% CO2 for 4 hours. […] A 100 μl volume of a solution of 10% sodium dodecyl sulfate in 0.01N hydrochloric acid was added to each sample, and the samples were incubated overnight. The absorbance at 590 nm was determined for each sample using a Molecular Devices Vmax microplate reader. This assay detects drug-induced suppression of viral CPE, as well as drug cytotoxicity, by measuring the generation of MTT-formazan by surviving cells.
(§4) Assays were done in 96-well tissue culture plates. CEM cells were treated with polybrene at a concentration of 2 μg/ml, and an 80 μl volume of cells (1×10^4 cells) was dispensed into each well. A 100 μl volume of each test article dilution (prepared as a 2 ×concentration) was added to 5 wells of cells, and the cells were incubated at 37° C. for 1 hour. A frozen culture of HIV-1, strain HTVL-IIIB, was diluted in culture medium to a concentration of 5×10^4 TCID50 per ml, and a 20 μl volume (containing 10^3 TCID50 of virus) was added to 3 of the wells for each test article concentration. […] A 20 μl volume of normal culture medium was added to the remaining wells to allow evaluation of cytotoxicity. Each plate contained 6 wells of untreated, uninfected, cell control samples and 6 wells of untreated, infected, virus control samples.

[2] = in vitro; format: cell-based; conditions: human, cem cells
Procedure: as §1, §2, §3, §4

[3] = Table I, Anti HIV Activity, CEM cells, 9 days

**Q.** For `C[C@]1(O)CN[C@@H]2CO[C@@H](c3ccccc3)O[C@H]2[C@@H]1O` [XIV, 1,5-dideoxy-1,5-imino-2-C-methyl-4,6-O-(R-phenylmethylene)TD-glucitol], which IC50 ([1]; Example 38, inhibition of HIV) is on record?
**A.** 513 µg/mL (≈ 1930 µM)

**Q.** Which cytotoxicity at 216 h [2] does the source give for `CCCCN1C[C@](C)(O)[C@@H](O)[C@H](O)[C@H]1CO` [XVIA, 1,5-Butylimino-1,5-dideoxy-2-C-methyl-D-glucitol] here?
**A.** 20%

**Q.** What about the IC50 [1, 3] of the same molecule?
**A.** 237 µg/mL (≈ 1020 µM)

**Q.** Which cytotoxicity at 216 h [2] does the source give for `CC1(O)CN(CCCc2ccccc2)C(CO)C(O)C1O` [XVIB, 1,5-(3-phenylpropylimino)-1,5-dideoxy-2-C-methyl-D-glucitol] here?
**A.** 40%

**Q.** What about the IC50 [1, 3] of the same molecule?
**A.** 492 µg/mL (≈ 1670 µM)

**Q.** With `CCC(CC)CN1C[C@](C)(O)[C@@H](O)[C@H](O)[C@H]1CO` [XVIC, 1,5-(2-ethylbutylimino) -1,5-dideoxy-2-C-methyl-D-glucitol] as the molecule, how does the CC50 at 216 h [2] read?
**A.** 349 µg/mL (≈ 1340 µM)

**Q.** What about the IC50 [1, 3] of the same molecule?
**A.** 6 µg/mL (≈ 23 µM)

**Q.** Which CC50 at 216 h [2] does the source give for `CCCCN1C[C@H](O)[C@@H](O)[C@H](O)[C@H]1CO` [n-Bu, N-butyl DNJ, reference compound] here?
**A.** > 500 µg/mL

**Q.** What about the IC50 [1, 3] of the same molecule?
**A.** 34 µg/mL (≈ 155 µM)
